# Source: PubChem BioAssay (NCI)
#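 Test compounds were applied to cells in 96-well plates for 48 hours at 5 doses. Definition used: TGI = concentration required for complete inhibition of growth.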
# How the values were obtained:
# Experiment in all cases: NCI tumour cell line growth inhibition, 48 h
# [1] = system: UACC-62 melanoma
# [2] = system: SK-MEL-28 melanoma
# [3] = system: SF-539 CNS
# [4] = system: LOX IMVI melanoma
# [5] = system: SK-MEL-2 melanoma
# [6] = system: SR leukemia
# [7] = system: CCRF-CEM leukemia
# [8] = system: TK-10 renal
# [9] = system: RXF 393 renal
# [10] = system: OVCAR-5 ovarian
# [11] = system: HOP-92 NSCLC
# [12] = system: HT29 colon
# [13] = system: RPMI-8226 leukemia
# [14] = system: XF 498 CNS
# [15] = system: NCI-H226 lung
# [16] = system: CAKI-1 renal
# [17] = system: HCC-2998 colon
# [18] = system: SN12C renal
# [19] = system: UACC-257 melanoma
# [20] = system: UO-31 renal
# [21] = system: SF-268 CNS
# [22] = system: RXF-631 renal
# [23] = system: HCT-15 colon
# [24] = system: NCI-H460 lung
# [25] = system: KM20L2 colon
# [26] = system: A549 NSCLC
# [27] = system: KM12 colon
# [28] = system: IGROV1 ovarian
# [29] = system: NCI-H522 lung
# [30] = system: SF-295 CNS
# [31] = system: M14 melanoma
# [32] = system: SW-620 colon
# [33] = system: K-562 leukemia
# [34] = system: OVCAR-4 ovarian
# [35] = system: HL-60(TB) leukemia
# [36] = system: LXFL 529 NSCLC
# [37] = system: OVCAR-8 ovarian
# [38] = system: OVCAR-3 ovarian
# [39] = system: COLO 205 colon
# [40] = system: DMS 114 small cell lung
# [41] = system: MOLT-4 leukemia
# [42] = system: DLD-1 colon
# [43] = system: SNB-75 CNS
# [44] = system: EKVX NSCLC
# [45] = system: MALME-3M melanoma
# [46] = system: SNB-19 CNS
# [47] = system: DMS 273 small cell lung
# [48] = system: SK-OV-3 ovarian
# [49] = system: ACHN renal
# [50] = system: 786-0 renal
# [51] = system: HCT-116 colon
# [52] = system: U251 CNS
# [53] = system: NCI-H23 lung
# [54] = system: A498 renal
# [55] = system: SK-MEL-5 melanoma
# [56] = system: HOP-18 NSCLC
# [57] = system: HOP-62 NSCLC
# [58] = system: SNB-78 CNS
# [59] = system: M19-MEL melanoma
smiles,measurement,setting,value
COc1cc(NS(C)(=O)=O)ccc1NCc1c2ccccc2nc2ccccc12,TGI,[1],> 100 µM
same,TGI,[2],> 100 µM
same,TGI,[3],65.2 µM
same,TGI,[4],91.1 µM
same,TGI,[5],> 100 µM
same,TGI,[6],62.9 µM
same,TGI,[7],33.5 µM
same,TGI,[8],> 100 µM
same,TGI,[9],57.5 µM
same,TGI,[10],> 100 µM
same,TGI,[11],92.7 µM
same,TGI,[12],> 100 µM
same,TGI,[13],71.1 µM
same,TGI,[14],65.9 µM
same,TGI,[15],> 100 µM
same,TGI,[16],> 100 µM
same,TGI,[17],> 100 µM
same,TGI,[18],> 100 µM
same,TGI,[19],> 100 µM
same,TGI,[20],> 100 µM
same,TGI,[21],> 100 µM
same,TGI,[22],71.3 µM
same,TGI,[23],> 100 µM
same,TGI,[24],> 100 µM
same,TGI,[25],> 100 µM
same,TGI,[26],> 100 µM
same,TGI,[27],> 100 µM
same,TGI,[28],> 100 µM
same,TGI,[29],77.3 µM
same,TGI,[30],> 100 µM
same,TGI,[31],> 100 µM
same,TGI,[32],> 100 µM
same,TGI,[33],> 100 µM
same,TGI,[34],22.3 µM
same,TGI,[35],47.4 µM
same,TGI,[36],> 100 µM
same,TGI,[37],99.1 µM
same,TGI,[38],> 100 µM
same,TGI,[39],> 100 µM
same,TGI,[40],58.2 µM
same,TGI,[41],35 µM
same,TGI,[42],85.4 µM
same,TGI,[43],> 100 µM
same,TGI,[44],> 100 µM
same,TGI,[45],> 100 µM
same,TGI,[46],> 100 µM
same,TGI,[47],> 100 µM
same,TGI,[48],> 100 µM
same,TGI,[49],> 100 µM
same,TGI,[50],> 100 µM
same,TGI,[51],36.6 µM
same,TGI,[52],> 100 µM
same,TGI,[53],> 100 µM
COC(=O)C(CC(=O)Nc1ccc(Cl)c(Cl)c1)C(=O)C(=O)Nc1ccc(Cl)c(Cl)c1 (stereo unspecified),TGI,[54],> 100 µM
same,TGI,[1],> 100 µM
same,TGI,[55],> 100 µM
same,TGI,[2],> 100 µM
same,TGI,[3],> 100 µM
same,TGI,[4],> 100 µM
same,TGI,[5],> 100 µM
same,TGI,[6],> 100 µM
same,TGI,[7],> 100 µM
same,TGI,[8],> 100 µM
same,TGI,[9],> 100 µM
same,TGI,[10],> 100 µM
same,TGI,[11],> 100 µM
same,TGI,[12],> 100 µM
same,TGI,[13],> 100 µM
same,TGI,[15],> 100 µM
same,TGI,[16],> 100 µM
same,TGI,[17],> 100 µM
same,TGI,[18],> 100 µM
same,TGI,[19],> 100 µM
same,TGI,[56],> 100 µM
same,TGI,[20],> 100 µM
same,TGI,[21],> 100 µM
same,TGI,[22],> 100 µM
same,TGI,[23],> 100 µM
same,TGI,[24],> 100 µM
same,TGI,[25],> 100 µM
same,TGI,[26],> 100 µM
same,TGI,[27],> 100 µM
same,TGI,[28],> 100 µM
same,TGI,[29],> 100 µM
same,TGI,[30],> 100 µM
same,TGI,[31],> 100 µM
same,TGI,[32],> 100 µM
same,TGI,[33],> 100 µM
same,TGI,[34],> 100 µM
same,TGI,[35],> 100 µM
same,TGI,[36],> 100 µM
same,TGI,[37],> 100 µM
same,TGI,[38],> 100 µM
same,TGI,[57],> 100 µM
same,TGI,[39],> 100 µM
same,TGI,[40],> 100 µM
same,TGI,[58],> 100 µM
same,TGI,[41],> 100 µM
same,TGI,[43],> 100 µM
same,TGI,[44],> 100 µM
same,TGI,[45],> 100 µM
same,TGI,[46],> 100 µM
same,TGI,[59],> 100 µM
same,TGI,[47],> 100 µM
same,TGI,[48],> 100 µM
same,TGI,[49],> 100 µM
same,TGI,[50],> 100 µM
same,TGI,[51],> 100 µM
same,TGI,[52],> 100 µM
same,TGI,[53],> 100 µM
COC(=O)/C(C#N)=C(\N)C(Cl)(Cl)Cl,TGI,[54],8.22 µM
same,TGI,[1],2.86 µM
same,TGI,[55],3.82 µM
same,TGI,[2],4.66 µM
same,TGI,[4],10.8 µM
same,TGI,[5],87.2 µM
same,TGI,[6],5.37 µM
same,TGI,[7],2.67 µM
same,TGI,[8],7.55 µM
same,TGI,[9],3.77 µM
same,TGI,[11],9.85 µM
same,TGI,[13],6.75 µM
same,TGI,[14],4.36 µM
same,TGI,[16],17.5 µM
same,TGI,[17],9.41 µM
same,TGI,[18],12.7 µM
same,TGI,[19],12.6 µM
same,TGI,[20],86.6 µM
same,TGI,[21],14.7 µM
same,TGI,[22],6.02 µM
same,TGI,[23],8.43 µM
same,TGI,[24],16.1 µM
same,TGI,[25],> 100 µM
same,TGI,[26],12.7 µM
same,TGI,[27],15.8 µM
same,TGI,[29],4.14 µM
same,TGI,[30],19.4 µM
same,TGI,[31],3.31 µM
same,TGI,[32],1.84 µM
same,TGI,[33],4.51 µM
same,TGI,[34],8.56 µM
same,TGI,[35],1.32 µM
same,TGI,[36],9.73 µM
same,TGI,[37],4.68 µM
same,TGI,[38],12.9 µM
same,TGI,[57],39 µM
same,TGI,[39],4.72 µM
same,TGI,[40],11.1 µM
same,TGI,[58],31.3 µM
same,TGI,[41],3.2 µM
same,TGI,[42],3.52 µM
same,TGI,[43],16 µM
same,TGI,[44],17.8 µM
same,TGI,[46],> 100 µM
same,TGI,[59],6.35 µM
same,TGI,[47],12.4 µM
same,TGI,[48],5.3 µM
same,TGI,[49],6.6 µM
same,TGI,[50],14.4 µM
same,TGI,[51],2.25 µM
same,TGI,[52],31.7 µM
